{"source": "patent EP1053750A1", "about": "“Use of proteasome-inhibitor for the induction of programmed cell death (apoptosis)” (Max-Planck-Gesellschaft zur Förderung der Wissenschaften …, priority 1999, dated 2000)", "key": {"caspase-3 like activity": {"tested_on": "caspase-3 like activity", "test": "Caspase activity in lysates of treated HUE cells, substrate Ac-DEVD-AMC", "assay_type": "cell-based, human", "conditions": "HUE cell lysates, 50 µM", "experimental": "Subconfluent endothelial cells were incubated with the inhibitors for the indicated times, lysed and caspase activities determined using Ac-DEVD-AMC for caspase-3-like enzymes and Ac-YVAD-AMC for caspase-1-like activities as described in the Material and Methods section (PSI, filled circles; LLnM, open square; E64, open triangles; Leupeptin, filled triangles; Pepstatin, filled squares). The specific caspase activities are shown as pmol of substrate hydrolyzed/min per µg of protein.\nHUE cells (8 x 10^5) were plated onto 10 cm plastic dishes, allowed to attach overnight, and inhibitors were added to a final concentration of 50 µM for the times indicated in Fig. 4. DMSO, which served as the vehicle, was added to a final concentration of 0.1%. Floating and adherent cells were then harvested, lysed in Buffer I (1% Triton X100, 10 mM KCl, 20 mM HEPES pH 7.4, 1.5 mM MgCl2, 0.2 mM EGTA, 1 mM PMSF), snap frozen in liquid nitrogen and stored at -80°C until required. Lysates were centrifuged at 13000 g for 5 min at 4°C, the supernatants collected and protein concentrations determined using the BCA assay. […] Specific activity was expressed as pmol AMC liberated per min and per µg protein in comparison to a standard curve calculated from the amount of free AMC (SIGMA, Deisenhofen, Germany)."}, "HUE cells": {"tested_on": "HUE cells", "test": "DNA fragmentation assay", "assay_type": "cell-based, human", "conditions": "10 µM PSI for 18 hours, agarose gel", "method": "• a. Analysis of PSI-induced DNA fragmentation by agarose gel electrophoresis. […] Neither caspase inhibitor (Ac-YVAD-CHO 250 µM, lane 4; Ac-DEVD-CHO 250 µM, lane 5) nor DMSO (lane 6) induced the characteristic pattern of DNA fragmentation. M1 and M2: DNA size markers (kb). • b. Immunoblot analysis of HUE cell lysates after incubation with PSI. […] Equal loading was controlled by using an antibody directed against GAPDH enzyme.\nHUE cells which had been plated at 20000 cells/cm^2 24 hours before the assay, were treated with 250 µM of the caspase inhibitors Ac-YVAD-CHO or Ac-DEVO-CHO (Peptide Institute, Osaka, Japan) or the equivalent volume of dimethylsulfoxide (DMSO) for 1 h prior to additon of the proteasomal inhibitors. Incubation of the cells was continued for a further 18 h and the extent of DNA fragmentation was analyzed as previously described with some minor modifications (Hockenberry et al., Nature 348 (1990), 334 - 336). Briefly, both the floating cells and the adherent cells which were detached by trypsinization, were lysed in a solution containing 0.5% Triton X100, 10 mM EDTA and 10 mM Tris-HCL pH 7.5 for 30 min on ice. To separate the intact chromatin from the oligonucleosomal fragments, the lysate was centrifuged at 13000 g for 10 min at 4°C and the resulting supernatant was sequentially extracted with phenol followed by phenol/chloroform/iso-amylalcohol (25:24:1; v/v/v). Low molecular weight DNA was precipitated by the addition of 0.5 vol 7 M ammonium acetate and 2.5 vol ice-cold ethanol. The precipitate was washed in 75% ethanol, dissolved in TE-buffer, containing RNase A (20 µg/ml; Boehringer Mannheim), incubated for 30 min at 37°C and subjected to electrophoresis on 1.5% agarose gels."}, "MDCK epithelial cells": {"tested_on": "MDCK epithelial cells", "test": "Viability assay (MIT assay), MDCK cells", "assay_type": "cell-based, canine", "conditions": "for EC50: Canis lupus familiaris, 48 h, 48 h incubation", "method": "The indicated values are expressed as the percentage of absorbance at 570 nm relative to the absorbance obtained by DMSO treated (control) cells.\nMadin Darby canine kidney epithelial cells (MDCK; ATCC CLL-34) were grown in Dulbecco's Modified Eagle's Medium (DMEM) containing 10% FCS, penicillin and streptomycin.\nBriefly, the cells were plated either at 3000 cells/well (low density) or 30000 cells/well (high density) onto 96 well plates and grown over night. […] The formazan cystals generated were subsequently dissolved in DMSO and absorption measured at 570 - 650 nm."}, "[1]": {"tested_on": "chorioallantoic membrane (CAM)", "test": "Chorioallantoic membrane (CAM) assay", "assay_type": "in vivo, chick embryo", "conditions": "for %CAMs with non-perfused areas: Luconyl Blue injection, positive/total CAMs in parenthesis", "method": "All experiments with chick embryos were performed in ovo. After aspiration of 2 ml of eggwhite from the pointed side of the egg, a window was cut into the eggshell on embryonic day 3 or 4 (E3, E4). The eggs were resealed with tape and further incubated until E9. […] Approximately 1 cm^2-pieces of the CAM were then cut out, washed in PBS and fixed in Carnoy's solution. After dehydration and embedding in paraffin, 8 µm sections were cut and stained with an anti-BrdU mouse monoclonal antibody (Boehringer Mannheim, Germany) according to the manufacturer's instructions. Counterstaining of the sections was performed with Gill's hematoxylin (Serva, Heidelberg, Germany). Sections were mounted using Aquamount (Merck, Darmstadt, Germany) and photos were taken with a Zeiss Axiophot microscope. […] Control pellets were prepared with an equal amount of Leupeptin or with DMSO as vehicle, respectively. To aid in the visualization of the vascular system, embryos and CAMs were then injected using pulled glass capillaries with 10% Luconyl Blue (BASF, Ludwigshafen, Germany) in PBS, and photographs were taken using a stereomicroscope with camera adapter.\nIn eight eggs the windows of the egg shells were enlarged under an operation microscope. After a peripheral incision in the CAM was made, the main artery was incised with a pair of ocular scissors, and a glass capillary (World Precision Instruments, Inc. Germany) pulled to the adequate diameter, was inserted and sealed with a drop of cyanoacrylate (Loctite®). Efflux was enabled by making another incision into a main draining vessel. The vascular system was flushed with up to 5 ml of prewarmed (37 -39°C) physiological saline (0.9% NaCI) under mechanically controlled pressure. […] After complete polymerization of the casting solution, the membranes were dissected and macerated in a solution of 5% potassium hydroxide (Fluka, Neu-Ulm, Germany) at 40°C for 1 - 2 days. The resulting corrosion casts of all specimens were freeze dried, mounted and sputter coated. Examination of the microvascular corrosion casts were carried out with a Stereoscan Mk-250 scanning electron microscope (Cambridge, England). Alternatively, in situ fixed CAM segments were cut out, processed for semi-thin sectioning and stained with methylene blue and Azur II. Selected specimens were trimmed for ultrathin sectioning, and counterstained with uranyl acetate and lead citrate."}, "caspase-1 like activity": {"tested_on": "caspase-1 like activity", "test": "Caspase activity in lysates of treated HUE cells, substrate Ac-YVAD-AMC", "assay_type": "cell-based, human", "conditions": "HUE cell lysates, 50 µM, throughout the time course", "method": "Detection of a caspase-3-like activity in lysates of PSI-treated HUE cells. […] The specific caspase activities are shown as pmol of substrate hydrolyzed/min per µg of protein.\nHUE cells (8 x 10^5) were plated onto 10 cm plastic dishes, allowed to attach overnight, and inhibitors were added to a final concentration of 50 µM for the times indicated in Fig. 4. DMSO, which served as the vehicle, was added to a final concentration of 0.1%. Floating and adherent cells were then harvested, lysed in Buffer I (1% Triton X100, 10 mM KCl, 20 mM HEPES pH 7.4, 1.5 mM MgCl2, 0.2 mM EGTA, 1 mM PMSF), snap frozen in liquid nitrogen and stored at -80°C until required. Lysates were centrifuged at 13000 g for 5 min at 4°C, the supernatants collected and protein concentrations determined using the BCA assay. A 40 µl aliquot of each sample was assayed in the presence of 20 µM Ac-DEVD-AMC or Ac-YVAD-AMC substrates (Bachem, Heidelberg, Germany) in Buffer II (50 mM PIPES-KOH pH 7.0, 0.1 mM EDTA, 1 mM DTT, 10% glycerol; total volume 250 µl) for 40 min at 37°C and the fluorescence intensity was measured with an excitation wavelength of 350 nm and emission wavelength of 430 nm. […] Specific activity was expressed as pmol AMC liberated per min and per µg protein in comparison to a standard curve calculated from the amount of free AMC (SIGMA, Deisenhofen, Germany)."}}, "note": "Peptide text beside a SMILES is read from it. * marks the point of attachment. Cbz = O=C(OCc1ccccc1)*; OtBu = CC(C)(C)O*", "data": [{"compound": "CC[C@H](C)[C@H](NC(=O)OCc1ccccc1)C(=O)N[C@@H](CCC(=O)OC(C)(C)C)C(=O)N[C@@H](C)C(=O)N[C@H](C=O)CC(C)C", "note": "[PSI, carbobenzoxy-L-isoleucyl-y-t-butyl-L-glutamyl-L-alanyl-L-leucinal] (Cbz-IE(OtBu)AL-aldehyde)", "values": [{"measurement": "time of maximum of Ac-DEVD-AMC cleavage", "setting": "caspase-3 like activity", "value": 15, "unit": "h"}, {"measurement": "DNA fragmentation (DNA ladder formation)", "setting": "HUE cells", "value": "induced DNA ladder formation"}, {"measurement": "EC50", "setting": "MDCK epithelial cells; con (confluent)", "value": 3100, "unit": "nM"}, {"measurement": "EC50", "setting": "MDCK epithelial cells; sub (low density, subconfluent)", "value": 16, "unit": "nM"}, {"measurement": "x difference", "setting": "MDCK epithelial cells; EC50 confluent versus subconfluent, 2880 min", "value": 194, "unit": "fold"}, {"measurement": "%CAMs with non-perfused areas", "setting": "[1]; 0.31 µg/disc, methylcellulose disc on CAM for 48 h", "value": "0(0/10) %"}, {"measurement": "%CAMs with non-perfused areas", "setting": "[1]; 1.0 µg/disc, methylcellulose disc on CAM for 48 h", "value": "56.3 (18/32) %"}, {"measurement": "%CAMs with non-perfused areas", "setting": "[1]; 3.1 µg/disc, methylcellulose disc on CAM for 48 h", "value": "85.7 (12/14) %"}, {"measurement": "densities of the capillary plexus and first order vessels (corrosion casts)", "setting": "[1]; CAM area directly under the disc", "value": "rarified"}, {"measurement": "TUNEL labeling of cell nuclei in CAM sections", "setting": "[1]; methylcellulose disc on CAM for 48 h, cells in close contact with the disc", "value": "Intense labeling"}, {"measurement": "caspase-1 like activity", "setting": "caspase-1 like activity", "value": "could not be detected"}]}]}
